# Read-outs that look alike come from different tables or passages of the source.
# Tests used:
# [1] = tested on: IFNγ-induced NO production in RAW264.7 macrophages; assay: Suppression of IFNγ-induced NO production (Griess reagent); assay type: cell-based, mouse
# Method: (§1) FIGS. 1-16 and 20-24. Inhibition of NO Production. RAW264.7 macrophages were pre-treated with DMSO or drugs at various concentrations (μM) for 2 hours, then treated with IFNγ for 24 hours. NO concentration in media was determined using a Griess reagent system; cell viability was determined using the WST-1 reagent.
# Compounds of the present disclosure have been tested for inhibition of NO production. Experimental details are provided in Example 1.
# (§2) RAW264.7 macrophages were pre-treated with DMSO or drugs for 2 hours, then treated with recombinant mouse IFNγ (Sigma) for 24 hours. NO concentration in media was determined using the Griess reagent system (Promega). Cell viability was determined using WST-1 reagent (Roche).
# RAW264.7 macrophages = assay: Cell viability (WST-1 reagent); assay type: cell-based, mouse; details: RAW264.7, 20 ng/ml IFNγ
# Method: as §1, §2
# [2] = Mus musculus, RAW264.7, parent compounds, read-out: IC50 in the NO assay
# [3] = Mus musculus, RAW264.7, 20 ng/ml IFNγ, read-out: NO IC50
# [4] = Mus musculus, RAW264.7, read-out: NO IC50
# [5] = Mus musculus, RAW264.7, read-out: IC50 in the NO assay
Structure (SMILES),"IC50 [1, 3]",IC50 (RAW264.7 macrophages; Mus musculus),"IC50 [1, 4]",also measured
"COc1cc(/C=C/C(=O)CC(=O)/C=C/c2ccc(O)c(OC)c2)ccc1O [Curcumin, curcumin, reference compound]",1350 nM,4000 nM,–,"IC50 [1, 2]: 1500 nM"
COCO[C@H]1C[C@H]2[C@@H]([C@H](OCOC)C[C@@H]3CC(=O)C(C#N)=C[C@@]32C)[C@@H]2CC[C@H]([C@H](C)CCC(=O)OC)[C@@]12C [Compound 63312],–,> 200 nM,~3500 nM,–
"CC1(C)C[C@@](C)(/C=C/c2ccc(O)cc2)C=C(C#N)C1=O [Compound R00142, (S,E)-3-(4-hydroxystyryl)-3,5,5-trimethyl-6-oxocyclohex-1-enecarbonitrile]",1200 nM,> 10000 nM,–,–
"CC1(C)C(=O)C(C#N)=C[C@]2(C)C3CC[C@]4(C)C(=O)CCC4C3CCC12 (stereo partly drawn) [Compound D0018, (10S,13S)-4,4,10,13-tetramethyl-3,17-dioxo-4,5,6,7,8,9,10,11,12,13,14,15,16,17-tetradecahydro-3H-cyclopenta[a]phenanthrene-2-carbonitrile]",130 nM,> 10000 nM,–,"IC50 [1, 5]: 130 nM"
"C[C@@H]1CC[C@@]2(OC1)O[C@H]1C[C@H]3[C@@H]4CC[C@H]5C[C@@H](O)CC[C@]5(C)[C@H]4CC(=O)[C@]3(C)[C@H]1[C@@H]2C [Hecogenin, hecogenin, reference compound]",–,–,–,"IC50 ([1]; RAW264.7, 20 ng/ml IFNγ, read-out: NO IC50): > 10000 nM; IC50 (RAW264.7 macrophages): > 10000 nM"
"COCOC1CCC2C3CCC4=C(C#N)C(=O)CC[C@@]4(C)C3CC[C@@]12C (stereo partly drawn) [Compound D0014, (10S,13R)-17-(methoxymethoxy)-10,13-dimethyl-3-oxo-2,3,6,7,8,9,10,11,12,13,14,15,16,17-tetradecahydro-1H-cyclopenta[a]phenanthrene-4-carbonitrile]",–,> 10000 nM,2400 nM,–
CC1CC[C@@]2(OC1)OC1CC3C4CCC5CC(=O)C(C#N)=C[C@]5(C)C4=CC(=O)[C@]3(C)C1[C@@H]2C (stereo partly drawn) [Compound H0001],–,2500 nM,150 nM,–
C=CCC1(CC=C)C(=O)C(C#N)(C#N)C[C@@]2(C)C1=CC[C@@H]1[C@@H]2CC[C@]2(C)C(=O)CC[C@@H]12 [Compound 63290],–,~10000 nM,~3000 nM,–
"CC1(C)C(=O)C(C#N)=C[C@]2(C)C3CC[C@]4(C)C(O[Si](C)(C)C)CCC4C3CCC12 (stereo partly drawn) [Compound D0016, (10S,13S)-4,4,10,13-tetramethyl-3-oxo-17-(trimethylsilyloxy)-4,5,6,7,8,9,10,11,12,13,14,15,16,17-tetradecahydro-3H-cyclopenta[a]phenanthrene-2-carbonitrile]",150 nM,10000 nM,–,–
C=CCC1(CC=C)C(=O)C(C#N)(C#N)C[C@@]2(C)C1=CC[C@@H]1[C@@H]2CC[C@@]2(C)[C@H]1CCC21OCCO1 [Compound 63291],–,> 10000 nM,~1500 nM,–
"C[C@@]12CCC3C(CCC4=C(C#N)C(=O)CC[C@]43C)C1CCC2O (stereo partly drawn) [Compound D0015, (10S,13R)-17-hydroxy-10,13-dimethyl-3-oxo-2,3,6,7,8,9,10,11,12,13,14,15,16,17-tetradecahydro-1H-cyclopenta[a]phenanthrene-4-carbonitrile]",2900 nM,> 10000 nM,–,–
"CC1(C)C(=O)C(C#N)=C[C@]2(C)C3CC[C@@]4(C)C(CC[C@@H]4O)C3CCC12 (stereo partly drawn) [Compound D0017, (10S,13S,17S)-17-hydroxy-4,4,10,13-tetramethyl-3-oxo-4,5,6,7,8,9,10,11,12,13,14,15,16,17-tetradecahydro-3H-cyclopenta[a]phenanthrene-2-carbonitrile]",140 nM,10000 nM,–,–
C[C@]12C=C(C#N)C(=O)C3(CCCC3)C1=CC[C@@H]1[C@@H]2CC[C@@]2(C)[C@H]1CCC21OCCO1 [Compound 63317],–,–,~70 nM,–
C[C@]12CC[C@H]3[C@@H](CC=C4C5(CCCC5)C(=O)C(C#N)=C[C@@]43C)[C@@H]1CC[C@@H]2O [Compound 63329],–,–,~60 nM,–
"C[C@]12CC[C@H](O)CC1=CC[C@@H]1[C@@H]2CC[C@]2(C)C(=O)CC[C@@H]12 [DHEA, dehydroandrosterone, reference compound]",> 10000 nM,> 10000 nM,–,"IC50 [1, 2]: > 10000 nM"
COC(=O)CC[C@@H](C)[C@H]1CC[C@H]2[C@@H]3[C@H](O)C[C@@H]4CC(=O)C(C#N)=C[C@]4(C)[C@H]3C[C@H](O)[C@]12C [Compound 63314],–,> 200 nM,~8000 nM,–
"Oc1ccc(C=Cc2cc(O)cc(O)c2)cc1 [Resveratrol, resveratrol, reference compound]",> 10000 nM,> 10000 nM,–,–
CCCC1(CCC)C(=O)C(C#N)=C[C@@]2(C)C1=CC[C@@H]1[C@@H]2CC[C@]2(C)C(=O)CC[C@@H]12 [Compound 63313],–,~2500 nM,~450 nM,–
"C[C@]1(/C=C/c2ccc(O)cc2)C=C(C#N)C(=O)CC1 [Compound R00141, (S,E)-3-(4-hydroxystyryl)-3-methyl-6-oxocyclohex-1-enecarbonitrile]",3000 nM,> 10000 nM,–,–
"COc1cc(C=CC2(C(C)(C)C(=O)/C=C/[C@@]3(C)C=C(C#N)C(=O)C(C)(C)C3)OCCO2)ccc1O [Compound C0010, (S)-3-((E)-4-(2-(4-hydroxy-3-methoxystyryl)-1,3-dioxolan-2-yl)-4-methyl-3-oxopent-1-enyl)-3,5,5-trimethyl-6-oxocyclohex-1-enecarbonitrile]",700 nM,5000 nM,–,–
C[C@]12C=C(C#N)C(=O)C3(CCCC3)C1=CC[C@@H]1[C@@H]2CC[C@]2(C)C(=O)CC[C@@H]12 [Compound 63318],–,–,~50 nM,–
C[C@]12C=C(C#N)C(=O)C3(CC=CC3)C1=CC[C@@H]1[C@@H]2CC[C@]2(C)C(=O)CC[C@@H]12 [Compound 63311],–,~750 nM,~20 nM,–
C[C@]12C=C(C#N)C(=O)C3(CC=CC3)C1=CC[C@@H]1[C@@H]2CC[C@@]2(C)[C@H]1CCC21OCCO1 [Compound 63304],–,~400 nM,~30 nM,–
"COc1cc(/C=C/C(=O)C(C)(C)C(=O)/C=C/[C@@]2(C)C=C(C#N)C(=O)C(C)(C)C2)ccc1O [Compound C0009, (S)-3-((1E,6E)-7-(4-hydroxy-3-methoxyphenyl)-4,4-dimethyl-3,5-dioxohepta-1,6-dienyl)-3,5,5-trimethyl-6-oxocyclohex-1-enecarbonitrile]",100 nM,1000 nM,–,"IC50 [1, 5]: 100 nM"
"COc1cc(C=CC2(C(C)(C)C(=O)/C=C/[C@@]3(C)C=C(C#N)C(=O)C(C)(C)C3)OCCO2)ccc1O[Si](C)(C)C(C)(C)C [Compound C0008, (S)-3-((E)-4-(2-(4-(tert-butyldimethylsilyloxy)-3-methoxystyryl)-1,3-dioxolan-2-yl)-4-methyl-3-oxopent-1-enyl)-3,5,5-trimethyl-6-oxocyclohex-1-enecarbonitrile]",–,5000 nM,340 nM,–

# From US9796668B2, “Natural product analogs including an anti-inflammatory cyanoenone pharmacore and methods of use” (REATA PHARMACEUTICALS, INC., priority 2008, dated 2017)
